Source: ChEMBL document CHEMBL1629662, “Antimicrobial activity of prulifloxacin tested against a worldwide collection of gastroenteritis-producing pathogens, including those causing traveler's diarrhea” (2009)
≈ marks a conversion by molar mass, not a printed value.

Columns and labels:
[1] = tested on: Escherichia coli; assay: Antibacterial activity against Escherichia coli assessed as percent susceptible isolates by broth microdilution method; format: functional
[2] = tested on: Aeromonas hydrophila; assay: Antibacterial activity against Aeromonas hydrophila assessed as percent resistant isolates by broth microdilution method; format: functional
[3] = tested on: Campylobacter sp.; assay: Antibacterial activity against Campylobacter sp. assessed as growth inhibition at 0.016 ug/ml by broth microdilution method; format: functional
[4] = tested on: Yersinia sp.; assay: Antibacterial activity against Yersinia sp. assessed as growth inhibition at 0.004 ug/ml by broth microdilution method; format: functional; settings: Yersinia sp. (in: enterobacteria)
[5] = tested on: Yersinia sp.; assay: Antibacterial activity against Yersinia sp. assessed as growth inhibition at 0.008 ug/ml by broth microdilution method; format: functional; settings: Yersinia sp. (in: enterobacteria)
[6] = tested on: Vibrio cholerae; assay: Antibacterial activity against Vibrio cholerae assessed as percent resistant isolates by broth microdilution method; format: functional
[7] = tested on: Vibrio sp.; assay: Antibacterial activity against Vibrio sp. assessed as growth inhibition at 0.004 ug/ml by broth microdilution method; format: functional
[8] = tested on: Shigella sp.; assay: Antibacterial activity against Shigella sp. assessed as growth inhibition at 0.004 ug/ml by broth microdilution method; format: functional
[9] = tested on: Salmonella sp.; assay: Antibacterial activity against Salmonella sp. assessed as growth inhibition at 0.12 ug/ml by broth microdilution method; format: functional
[10] = tested on: Escherichia coli; assay: Antibacterial activity against enteroaggregative Escherichia coli assessed as percent susceptible isolates by broth microdilution method; format: functional
[11] = tested on: Yersinia sp.; assay: Antibacterial activity against Yersinia sp. assessed as growth inhibition at 0.06 ug/ml by broth microdilution method; format: functional; settings: Yersinia sp. (in: enterobacteria)
[12] = tested on: Escherichia coli; assay: Antibacterial activity against Escherichia coli by broth microdilution method in presence of sulfamethoxazolee; format: functional
[13] = tested on: Escherichia coli; assay: Antibacterial activity against enterotoxigenic Escherichia coli assessed as percent resistant isolates by broth microdilution method; format: functional
[14] = tested on: Vibrio sp.; assay: Antibacterial activity against Vibrio sp. assessed as growth inhibition at =<0.002 ug/ml by broth microdilution method; format: functional
[15] = tested on: Shigella sp.; assay: Antibacterial activity against Shigella sp. assessed as growth inhibition at 0.016 ug/ml by broth microdilution method; format: functional
[16] = tested on: Vibrio vulnificus; assay: Antibacterial activity against Vibrio vulnificus by broth microdilution method; format: functional
[17] = tested on: Salmonella enteritidis; assay: Antibacterial activity against Salmonella enterica serovar Enteritidis by broth microdilution method; format: functional, Salmonella enterica subsp. enterica serovar Enteritidis
[18] = tested on: Vibrio sp.; assay: Antibacterial activity against Vibrio sp. by broth microdilution method; format: functional
[19] = tested on: Aeromonas sp.; assay: Antibacterial activity against Aeromonas sp. assessed as growth inhibition at 0.06 ug/ml by broth microdilution method; format: functional
[20] = tested on: Aeromonas sp.; assay: Antibacterial activity against Aeromonas sp. assessed as growth inhibition at 0.004 ug/ml by broth microdilution method; format: functional
[21] = Antibacterial activity against Salmonella enterica serovar Newport by broth microdilution method; format: functional, Salmonella enterica subsp. enterica serovar Newport
[22] = tested on: Yersinia enterocolitica; assay: Antibacterial activity against Yersinia enterocolitica by broth microdilution method; format: functional
[23] = tested on: Campylobacter sp.; assay: Antibacterial activity against Campylobacter sp. assessed as growth inhibition at 1 ug/ml by broth microdilution method; format: functional
[24] = tested on: Aeromonas sp.; assay: Antibacterial activity against Aeromonas sp. assessed as growth inhibition at 0.016 ug/ml by broth microdilution method; format: functional
[25] = tested on: Aeromonas veronii; assay: Antibacterial activity against Aeromonas veronii assessed as percent susceptible isolates by broth microdilution method; format: functional
[26] = tested on: Yersinia sp.; assay: Antibacterial activity against Yersinia sp. assessed as growth inhibition at 0.03 ug/ml by broth microdilution method; format: functional; settings: Yersinia sp. (in: enterobacteria)
[27] = Antibacterial activity against Salmonella enterica serovar Choleraesuis by broth microdilution method; format: functional, Salmonella enterica subsp. enterica serovar Choleraesuis
[28] = Antibacterial activity against Salmonella enterica serovar Virchow by broth microdilution method; format: functional, Salmonella enterica subsp. enterica serovar Virchow
[29] = tested on: Plesiomonas shigelloides; assay: Antibacterial activity against Plesiomonas shigelloides assessed as growth inhibition at =<0.002 ug/ml by broth microdilution method; format: functional
[30] = tested on: Yersinia enterocolitica; assay: Antibacterial activity against Yersinia enterocolitica assessed as percent susceptible isolates by broth microdilution method; format: functional
[31] = tested on: Campylobacter sp.; assay: Antibacterial activity against Campylobacter sp. assessed as growth inhibition at 0.12 ug/ml by broth microdilution method; format: functional
[32] = tested on: Shigella sonnei; assay: Antibacterial activity against Shigella sonnei assessed as percent resistant isolates by broth microdilution method; format: functional; settings: pooled result: one value given for 4 cell lines, strains, targets or settings
[33] = tested on: Escherichia coli; assay: Antibacterial activity against blood-borne Escherichia coli by broth microdilution method; format: functional
[34] = tested on: Vibrio alginolyticus; assay: Antibacterial activity against Vibrio alginolyticus by broth microdilution method; format: functional
[35] = tested on: Aeromonas sobria; assay: Antibacterial activity against Aeromonas sobria assessed as percent resistant isolates by broth microdilution method; format: functional
[36] = tested on: Campylobacter sp.; assay: Antibacterial activity against Campylobacter sp. assessed as growth inhibition at 2 ug/ml by broth microdilution method; format: functional
[37] = tested on: Campylobacter jejuni; assay: Antibacterial activity against Campylobacter jejuni assessed as percent susceptible isolates by broth microdilution method; format: functional; settings: pooled result: one value given for 2 cell lines, strains, targets or settings
[38] = tested on: Aeromonas sp.; assay: Antibacterial activity against Aeromonas sp. assessed as growth inhibition at =<0.002 ug/ml by broth microdilution method; format: functional
[39] = tested on: Campylobacter sp.; assay: Antibacterial activity against Campylobacter sp. assessed as growth inhibition at =<0.002 ug/ml by broth microdilution method; format: functional
[40] = tested on: Campylobacter sp.; assay: Antibacterial activity against Campylobacter sp. assessed as growth inhibition at 0.5 ug/ml by broth microdilution method; format: functional
[41] = tested on: Aeromonas caviae; assay: Antibacterial activity against Aeromonas caviae assessed as percent susceptible isolates by broth microdilution method; format: functional
[42] = tested on: Salmonella typhi; assay: Antibacterial activity against Salmonella enterica serovar Typhi by broth microdilution method; format: functional, Salmonella enterica subsp. enterica serovar Typhi

## CC1Sc2c(C(=O)O)c(=O)c3cc(F)c(N4CCNCC4)cc3n21 (stereo not given) [ULIFLOXACIN]
[1]
  Activity: 97%
[2]
  Activity: 2%
[3]
  inhibition at 0.016 µg/mL: 8%
[4]
  inhibition at 0.004 µg/mL: 0%
[5]
  inhibition at 0.008 µg/mL: 56%
[6]
  Activity: 0%
[7]
  inhibition at 0.004 µg/mL: 35%
[8]
  inhibition at 0.004 µg/mL: 62%
[9]
  inhibition at 0.12 µg/mL: 100%
[10]
  Activity: 100%
[11]
  inhibition at 0.06 µg/mL: 98%
[12]
  Activity: 4.8%
[13]
  Activity: 0%
[14]
  inhibition (INH): 15%
[15]
  inhibition at 0.016 µg/mL: 96%
[16]
  MIC50: 0.016 µg/mL (≈ 0.0458 µM)
  MIC90: 0.03 µg/mL (≈ 0.0859 µM)
[17]
  MIC50: 8 ng/mL (≈ 0.0229 µM)
  MIC90: 0.03 µg/mL (≈ 0.0859 µM)
[18]
  MIC50: 0.016 µg/mL (≈ 0.0458 µM)
  MIC90: 0.03 µg/mL (≈ 0.0859 µM)
[19]
  inhibition at 0.06 µg/mL: 92%
[20]
  inhibition at 0.004 µg/mL: 55%
[21]
  MIC50: 8 ng/mL (≈ 0.0229 µM)
  MIC90: 0.03 µg/mL (≈ 0.0859 µM)
[22]
  MIC: 8 ng/mL (≈ 0.0229 µM)
  MIC50: 8 ng/mL (≈ 0.0229 µM)
  MIC90: 0.016 µg/mL (≈ 0.0458 µM)
[23]
  inhibition at 1 µg/mL: 84%
[24]
  inhibition at 0.016 µg/mL: 78%
[25]
  Activity: 98%
[26]
  inhibition at 0.03 µg/mL: 93%
[27]
  MIC50: 8 ng/mL (≈ 0.0229 µM)
  MIC90: 0.03 µg/mL (≈ 0.0859 µM)
[28]
  MIC50: 8 ng/mL (≈ 0.0229 µM)
  MIC90: 0.03 µg/mL (≈ 0.0859 µM)
[29]
  inhibition (INH): 0%
[30]
  Activity: 100%
[31]
  inhibition at 0.12 µg/mL: 82%
[32]
  Activity: 0%
[33]
  MIC50: 8 ng/mL (≈ 0.0229 µM)
  MIC90: 0.06 µg/mL (≈ 0.172 µM)
[33]; Escherichia coli, read-out: MIC50
  MIC50: 8 ng/mL (≈ 0.0229 µM)
[33]; Escherichia coli, read-out: MIC90
  MIC90: 0.06 µg/mL (≈ 0.172 µM)
[34]
  MIC50: 0.016 µg/mL (≈ 0.0458 µM)
  MIC90: 0.03 µg/mL (≈ 0.0859 µM)
[35]
  Activity: 2%
[36]
  inhibition at 2 µg/mL: 85%
[37]
  Activity: 84.4%
[38]
  inhibition (INH): 16%
[39]
  inhibition (INH): 0%
[40]
  inhibition at 0.5 µg/mL: 83%
[41]
  Activity: 98%
[42]
  MIC50: 8 ng/mL (≈ 0.0229 µM)
  MIC90: 0.03 µg/mL (≈ 0.0859 µM)
